Experimental data: US20230000876A1, “TREATING CANCERS WITH A CYCLIN-DEPENDENT KINASE INHIBITOR” (Nuvation Bio Inc., priority 2021, published 2023)

Key:
ACHN-luc2 = assay: CellTiter-Glo anti-proliferation assay, ACHN-luc2; assay type: cell-based
Method: (§1) The anti-proliferation effect of 2 compounds (the compound of formula (I) and temozolomide) in 7 CNS metastasis cell lines (MOLT-4-luc, Nalm-6-luc, NCI-H460-luc, ACHN-luc2, PC-9-luc, H1975-luc, and KM12-luc) was evaluated.
(§2) The plating of cells and compound treatments are shown below in the plate map (Table 12). One plate was needed for the test of 2 compounds (the compound of formula (I) and temozolomide) in one cell line. The compound of formula (I) was tested from 10 μM, 3-fold serial dilution. Temozolomide was tested from 100 μM, 3-fold serial dilution.
(§3) All the cell lines were maintained in culture conditions at 37° C. in an atmosphere with 5% CO2 in air. The tumor cells were routinely subcultured. The cells growing in an exponential growth phase were harvested and counted for plating.
(§4) Cells were counted by haemocytometer with Trypan blue staining. Next, 135 μL of cell suspension were plated into the assay plates according to the plate map and 135 μL of assay medium into the blank wells. The plates were incubated at 37° C., 5% CO2, 95% air and 100% relative humidity overnight.
(§5) 4.4.4 Compound Plate (10×) Preparation and Compound Treatment • 10× concentrate compound plate preparation: Add 198 μL of assay medium into each well of the V-bottom plate; then transfer 2 μL of the stock compound solution of each concentration from the stock plate. Add 2 μL of DMSO into the Blank and Control wells. Pipette up and down to mix well. This V-plate is designated as the 10× concentrate compound plate. • For day 0 plate, add 15 μL of the DMSO-medium into the Control wells. The final DMSO concentration was 0.1%. Then directly proceed to cell viability assay. • For assay plate, add 15 μL of the compound-medium of each well from the 10× concentrate compound plate into the cells in 96-well assay plate according to the plate map. Add 15 μL of the DMSO-medium into the Blank and Control wells. The final DMSO concentration was 0.1%. • Return the assay plate into incubator and incubate for 6 days.
(§6) The procedures were performed according to the Promega CellTiter-Glo Luminescent Cell Viability Assay Kit manual (Promega-G7573). • The CellTiter-Glo buffer was thawed and equilibrated to room temperature prior to use. • CellTiter-Glo Substrate was equilibrated to room temperature prior to use. • The entire liquid volume of CellTiter-Glo Buffer was transferred into the amber bottle containing CellTiter-Glo Substrate to reconstitute the lyophilized enzyme/substrate mixture. This forms the CellTiter-Glo Reagent. • The contents were mixed by gently vortexing to obtain a homogeneous solution. • The plate was equilibrated and its contents to room temperature for approximately 30 minutes. 75 μL (equal to the half volume of culture medium present in each well) CellTiter-Glo • Reagent was added in each well. Plates were covered with aluminum foil to protect from light. • The contents were mixed for 2 minutes on an orbital shaker to induce cell lysis. • The plate was incubated at room temperature for 20 minutes to stabilize luminescent signal. • Record luminescence on the 2104 EnVision plate reader.
(§7) Inhibition rate (IR) of the tested compounds was determined by the following formula: IR (%)=(1−(RLU compound−RLU day0)/(RLU control−RLU day0))*100%. The inhibitions of different dose of compound were calculated in Excel file, and then were used to plot inhibition curves and evaluate related parameters, such as Min (%), Max (%) and GI50. The data were interpreted by GraphPad Prism.

MOLT-4-luc = assay: CellTiter-Glo anti-proliferation assay, MOLT-4-luc; assay type: cell-based
Method: as §1, §2, §3, §4, §5, §6, §7

U-118MG xenograft tumors = assay: U-118MG glioma subcutaneous xenograft model; assay type: in vivo, female CB17 SCID mice; conditions: QD; for Tumor volume (mean ± SEM): 1 mg/kg PO
Method: The tumor cells were routinely subcultured twice weekly. The cells growing in an exponential growth phase were harvested and counted for tumor inoculation.
The treatments was started on day 7 after tumor inoculation when the average tumor volume reached 150 mm^3. 60 mice were selected and assigned into 6 groups. The testing articles were administrated to the mice according to Table 1.
Tumor size was measured twice weekly in two dimensions using a caliper, and the volume was expressed in mm^3 using the formula: V=0.5 a×b^2 where a and b are the long and short diameters of the tumor, respectively. The tumor sizes are then used for the calculation of T/C and TGI values.
The T/C value (in percent) is an indication of antitumor effectiveness; T and C are the mean volume of the treated and control groups, respectively, on a given day.
TGI was calculated for each group using the formula: TGI (%)=[1−(Ti−T0)/(Vi−V0)]×100; Ti is the average tumor volume of a treatment group on PG-D28 T0 is the average tumor volume of the treatment group on the day of treatment start, Vi is the average tumor volume of the vehicle control group on the same day with Ti, and V0 is the average tumor volume of the vehicle group on the day of treatment start.
All Groups were taken down on PG-D28, tumor, plasma and brain samples were collected.
For statistical analysis for difference among groups 2-6 and group 1, a one-way ANOVA was performed. All the analysis were conducted using GraphPad Prism software. p<0.05 was considered to be statistically significant.

Nalm-6-luc = assay: CellTiter-Glo anti-proliferation assay, Nalm-6-luc; assay type: cell-based
Method: as §1, §2, §3, §4, §5, §6, §7

[1] = tested on: U-87MG-luc orthotopic intracranial tumors; assay: U-87MG-luc glioblastoma orthotopic intracranial model, survival; assay type: in vivo, female BALB/c nude mice; conditions: 1 mg/kg PO*QD × 5/7 days (vehicle 37 days)
Method: U-87MG-luc cells were derived from U-87MG parental cells acquired from ATCC by stably introducing the gene that encodes the luciferase (luc) protein. The U-87MG-luc cells were cultured at 37° C. in an atmosphere of 5% CO2 in air. The tumor cells were routinely subcultured twice weekly. The cells growing in an exponential growth phase were harvested and counted for tumor inoculation.
3×10^5 U-87MG-luc tumor cells were micro-injected into the right lobe (caudate nucleus) of the brain of each mouse. A total of 94 mice were inoculated. Ten days after cell inoculation, bioluminescence were measured by Xenogen IVIS Lumina II machine, 70 mice were selected and randomly assigned into 7 groups based on bioluminescence intensity and bodyweight. The mice were dosed according to Table 25.

PC-9-luc = assay: CellTiter-Glo anti-proliferation assay, PC-9-luc; assay type: cell-based
Method: as §1, §2, §3, §4, §5, §6, §7

KM12-luc = assay: CellTiter-Glo anti-proliferation assay, KM12-luc; assay type: cell-based
Method: as §1, §2, §3, §4, §5, §6, §7

NCI-H460-luc = assay: CellTiter-Glo anti-proliferation assay, NCI-H460-luc; assay type: cell-based
Method: as §1, §2, §3, §4, §5, §6, §7

H1975-luc = assay: CellTiter-Glo anti-proliferation assay, H1975-luc; assay type: cell-based
Method: as §1, §2, §3, §4, §5, §6, §7

[2] = inhibition rate, 6 days, Compound (I) from 10 μM, temozolomide from 100 μM, 3-fold, 9 points
[3] = 144 h, 6 days incubation, read-out: Absolute GI50
[4] = Group 6: Temozolomide 1 mg/kg PO, PG-D27

How did the GI50 (ACHN-luc2; ACHN-luc2, 144 h, 6 days incubation, read-out: Absolute GI50) turn out when `Cn1nnc2c(C(N)=O)ncn2c1=O` [Temozolomide, reference compound] was run?
The GI50 was over 100 µM.

What about the “Max (%)” value (ACHN-luc2; [2]) of the same compound?
The value was 20.0%.

And the “Min (%)” value (ACHN-luc2; [2])?
Its value is 2.8%.

What about the GI50 (MOLT-4-luc; [3]) of the same compound?
Its GI50 is over 100 µM.

What about the “Max (%)” value (MOLT-4-luc; [2]) of the same compound?
Its value is 23.2%.

What about the “Min (%)” value (MOLT-4-luc; [2]) of the same compound?
The value was −2.2%.

What about the “Tumor volume (mean ± SEM)” value (U-118MG xenograft tumors; day 0) of the same compound?
The value was 154 ± 12 mm^3.

What about the “Tumor volume (mean ± SEM)” value (U-118MG xenograft tumors; day 3) of the same compound?
Its value is 239 ± 18 mm^3.

And the “Tumor volume (mean ± SEM)” value (U-118MG xenograft tumors; day 7)?
The value was 306 ± 17 mm^3.

And the “Tumor volume (mean ± SEM)” value (U-118MG xenograft tumors; day 10)?
Its value is 346 ± 22 mm^3.

What about the “Tumor volume (mean ± SEM)” value (U-118MG xenograft tumors; day 14) of the same compound?
The value was 358 ± 22 mm^3.

And the “Tumor volume (mean ± SEM)” value (U-118MG xenograft tumors; day 17)?
Its value is 395 ± 30 mm^3.

What about the “Tumor volume (mean ± SEM)” value (U-118MG xenograft tumors; day 21) of the same compound?
Its value is 411 ± 31 mm^3.

And the “Tumor volume (mean ± SEM)” value (U-118MG xenograft tumors; day 24)?
The value was 423 ± 35 mm^3.

What about the “Tumor volume (mean ± SEM)” value (U-118MG xenograft tumors; day 28) of the same compound?
Its value is 473 ± 44 mm^3.

And the T/C (U-118MG xenograft tumors; [4])?
The T/C was 74.94%.

What about the TGI (U-118MG xenograft tumors; [4]) of the same compound?
Its TGI is 33.24%.

And the “Tumor Size” value (U-118MG xenograft tumors; [4])?
The value was 473 ± 44 mm^3.

What about the GI50 (Nalm-6-luc; [3]) of the same compound?
The GI50 was over 100 µM.

What about the “Max (%)” value (Nalm-6-luc; [2]) of the same compound?
The value was 22.9%.

And the “Min (%)” value (Nalm-6-luc; [2])?
Its value is 6.5%.

What about the Median survival [1] of the same compound?
The Median survival was 44 days.

And the GI50 (PC-9-luc; [3])?
The GI50 was over 100 µM.

What about the “Max (%)” value (PC-9-luc; [2]) of the same compound?
The value was 5.6%.

What about the “Min (%)” value (PC-9-luc; [2]) of the same compound?
The value was −13.1%.

What about the GI50 (KM12-luc; KM12-Luc, 144 h, 6 days incubation, read-out: Absolute GI50) of the same compound?
Its GI50 is over 100 µM.

What about the “Max (%)” value (KM12-luc; [2]) of the same compound?
Its value is 1.6%.

And the “Min (%)” value (KM12-luc; [2])?
Its value is −12.1%.

And the GI50 (NCI-H460-luc; NCI-H460-Luc, 144 h, 6 days incubation, read-out: Absolute GI50)?
Its GI50 is over 100 µM.

What about the “Max (%)” value (NCI-H460-luc; [2]) of the same compound?
Its value is 7.2%.

And the “Min (%)” value (NCI-H460-luc; [2])?
Its value is 4.8%.

And the GI50 (H1975-luc; [3])?
Its GI50 is over 100 µM.

And the “Max (%)” value (H1975-luc; [2])?
Its value is 13.0%.

What about the “Min (%)” value (H1975-luc; [2]) of the same compound?
Its value is −0.3%.
